Results reported in publication PMC12081876, “Identification of PTGR2 inhibitors as a new therapeutic strategy for diabetes and obesity” (EMBO Molecular Medicine, 2025).
Where “and” joins values, the source holds several entries; their conditions need not be identical. Equal values may be shown once.

Columns and labels:
[1] = system: differentiated 3T3-L1 adipocytes; test: Insulin-stimulated glucose uptake assay by (3H)2-deoxyglucose; type: cell-based, mouse; parameters: insulin-stimulated glucose uptake, Fig 1J replicates / Figure 5E raw value, insulin-stimulated glucose uptake (replicates): unit not given here
Method: The cell lines, which were tested for mycoplasma contamination and authenticated, were purchased from the Bioresource Collection and Research Center, Taiwan. All cells were cultured at 37 °C, 5% CO2 in a humidified incubator. HEK293T cells were maintained in DMEM (cat. no. SH30003.02, HyClone) supplemented with 10% fetal bovine serum (FBS) (cat. no. 04-001-1A, Biological Industries) and 1% antibiotic/antimycotic solution (cat. no. SV30079.01, HyClone). 3T3-L1 preadipocytes were maintained at ~70% confluence in DMEM with 10% calf serum (cat. no. 16170078, Gibco) and 1% antibiotic/antimycotic solution. For adipocyte differentiation, confluent 3T3-L1 cells (defined as day 0) were exposed to an induction medium containing 10% FBS, 1 μM dexamethasone (cat. no. D4902, Sigma-Aldrich), and 1 μg/ml insulin (Humulin R, Eli Lilly) in DMEM with or without 0.5 mM isobutyl-methylxanthine (cat. no. sc-201188A, Santa Cruz Biotechnology) as indicated. After two days, the medium was replaced with DMEM containing 10% FBS and 1 μg/ml insulin and was replenished every two days until assay.
Differentiated 3T3-L1 cells were starved with serum-free DMEM containing 0.2% BSA (cat. no. A9647, Sigma-Aldrich). Cells were rinsed twice with KRH buffer (137 mM NaCl, 4.7 mM KCl, 1.85 mM CaCl2, 1.3 mM MgSO4, 50 mM HEPES and 0.1% BSA, pH 7.4), and treated with or without […] insulin in the presence of 20 μM cytochalasin B (cat. no. 11328, Cayman Chemical), a GLUT inhibitor for measuring non-specific glucose uptake, for 30 min. Cells were then incubated with 0.5 μCi [^3H]-2-deoxy-D-Glucose (cat. no. NET328A001MC, PerkinElmer) and 0.1 μM 2-deoxy-D-Glucose (2DG) (cat. no. 14325, Cayman Chemical) for 5 min. Uptake of 2DG was terminated by rapidly removing medium and washing with ice-cold PBS three times. Cells were lysed with 0.1% SDS, and the radioactivity was measured using a liquid scintillation counter. Insulin-mediated glucose uptake was calculated by subtracting insulin-treated glucose uptake with basal glucose uptake.

[2] = system: HFHSD-fed obese C57BL6/J mice; test: Body weight / diet-induced obesity in HFHSD-fed mice; type: in vivo, mouse; conditions: Figure 5J, 100 mg/kg/day, in g (unit assumed)
[3] = system: HFHSD-fed obese C57BL6/J mice; test: Intraperitoneal glucose tolerance test (ipGTT); type: in vivo, mouse; parameters: Figure 2H Average (glucose, ipGTT) / ipGTT / ipGTT glucose, Average / Blood glucose during glucose tolerance test (Figure 5L), Average: unit not given here; conditions: 100 mg/kg/day
Method: (§1) Glucose tolerance was evaluated by the oral (OGTT) and intraperitoneal glucose tolerance test (ipGTT) after a 6-h fast. For the OGTT, glucose water (1 mg/g) was given by oral gavage, and tail blood glucose was measured with a glucometer (ACCU-CHEK Performa, Roche) at 0, 15, 30, 45, 60, 90, and 120 min. For the ipGTT, tail blood glucose was measured at 0, 15, 30, 45, 60, 90, and 120 min after intraperitoneal injection of glucose water (1 mg/g). For the insulin tolerance test (ITT), mice were fasted for 4 h and then injected intraperitoneally with 1 U/kg of insulin (Humulin R, Eli Lilly). Tail blood glucose was measured at 0, 15, 30, 45, 60, 90, 120, and 180 min.

[4] = system: HFHSD-fed obese C57BL6/J mice; test: Insulin tolerance test (ITT); type: in vivo, mouse; parameters: Figure 2I Average (glucose, ITT) / ITT / ITT glucose, Average / Blood glucose during insulin tolerance test (Figure 5M), Average: unit not given here; conditions: 100 mg/kg/day
Method: as §1

**Q.** What does the source list for `CCCCCC(=O)CC[C@H]1[C@H](O)CC(=O)[C@@H]1C/C=C\CCCC(=O)O` [13,14-dihydro-15-keto-PGE2]?
**A.** insulin-stimulated glucose uptake, Fig 1J replicates ([1]; 13,14dh-15kPGE2 5): 2.459 and 1.953 and 1.121 and 1.067; insulin-stimulated glucose uptake ([1]; differentiated 3T3-L1 adipocytes): showed little effect

**Q.** `Cc1[nH]c2nc(C(C)N3CCN(c4ccccc4)CC3)nn2c(=O)c1Cc1ccc(F)cc1` (stereo not shown) [BPRPT245] was tested. Which “Body weight, Average” value ([2]; week 0) did it give?
**A.** The value was 30.59.

**Q.** And the “Body weight, Average” value ([2]; week 1)?
**A.** The value was 31.2.

**Q.** And the “Body weight, Average” value ([2]; week 2)?
**A.** Its value is 31.673.

**Q.** And the “Body weight, Average” value ([2]; week 3)?
**A.** The value was 32.167.

**Q.** What about the “Body weight, Average” value ([2]; week 4) of the same compound?
**A.** Its value is 32.92.

**Q.** What about the “Body weight, Average” value ([2]; week 5) of the same compound?
**A.** Its value is 32.837.

**Q.** What about the “Body weight, Average” value ([2]; week 6) of the same compound?
**A.** Its value is 33.673.

**Q.** And the “Body weight, Average” value ([2]; week 7)?
**A.** Its value is 33.323.

**Q.** And the “Body weight, Average” value ([2]; week 8)?
**A.** The value was 33.923.

**Q.** What about the “Body weight, Average” value ([2]; week 9) of the same compound?
**A.** Its value is 34.59.

**Q.** What about the “Body weight, Average” value ([2]; week 10) of the same compound?
**A.** The value was 35.623.

**Q.** And the “Body weight, Average” value ([2]; week 11)?
**A.** The value was 36.193.

**Q.** And the “Body weight, Average” value ([2]; week 12)?
**A.** The value was 37.113.

**Q.** What about the “Body weight, Average” value ([2]; week 13) of the same compound?
**A.** Its value is 36.957.

**Q.** And the “Body weight, Average” value ([2]; week 14)?
**A.** Its value is 38.33.

**Q.** And the “Body weight, Average” value ([2]; week 15)?
**A.** The value was 38.607.

**Q.** And the “Body weight, Average” value ([2]; week 16)?
**A.** Its value is 39.303.

**Q.** And the “Body weight, Average” value ([2]; week 17)?
**A.** Its value is 40.533.

**Q.** What about the “Body weight, Average” value ([2]; week 18) of the same compound?
**A.** The value was 40.933.

**Q.** And the “Body weight, Average” value ([2]; week 19)?
**A.** Its value is 42.11.

**Q.** And the “Body weight, Average” value ([2]; week 20)?
**A.** Its value is 41.483.

**Q.** What about the “Body weight, Average” value ([2]; week 21) of the same compound?
**A.** Its value is 42.933.

**Q.** What about the “Body weight, Average” value ([2]; week 22) of the same compound?
**A.** The value was 43.33.

**Q.** And the “Body weight, Average” value ([2]; week 23)?
**A.** The value was 44.06.

**Q.** And the “Body weight, Average” value ([2]; week 24)?
**A.** The value was 44.36.

**Q.** What about the “Body weight, Average” value ([2]; week 25) of the same compound?
**A.** The value was 45.28.

**Q.** What about the “Blood glucose during glucose tolerance test (Figure 5L), Average” value ([3]; time 0) of the same compound?
**A.** The value was 153.667.

**Q.** What about the “Blood glucose during glucose tolerance test (Figure 5L), Average” value ([3]; time 15) of the same compound?
**A.** The value was 305.

**Q.** What about the “Blood glucose during glucose tolerance test (Figure 5L), Average” value ([3]; time 30) of the same compound?
**A.** Its value is 285.933.

**Q.** What about the “Blood glucose during glucose tolerance test (Figure 5L), Average” value ([3]; time 45) of the same compound?
**A.** The value was 242.333.

**Q.** What about the “Blood glucose during glucose tolerance test (Figure 5L), Average” value ([3]; time 60) of the same compound?
**A.** Its value is 219.733.

**Q.** What about the “Blood glucose during glucose tolerance test (Figure 5L), Average” value ([3]; time 90) of the same compound?
**A.** The value was 192.133.

**Q.** What about the “Blood glucose during glucose tolerance test (Figure 5L), Average” value ([3]; time 120) of the same compound?
**A.** The value was 185.4.

**Q.** And the “Blood glucose during insulin tolerance test (Figure 5M), Average” value ([4]; time 0)?
**A.** Its value is 210.867.

**Q.** What about the “Blood glucose during insulin tolerance test (Figure 5M), Average” value ([4]; time 15) of the same compound?
**A.** Its value is 143.067.

**Q.** And the “Blood glucose during insulin tolerance test (Figure 5M), Average” value ([4]; time 30)?
**A.** Its value is 94.067.

**Q.** What about the “Blood glucose during insulin tolerance test (Figure 5M), Average” value ([4]; time 45) of the same compound?
**A.** The value was 78.667.

**Q.** What about the “Blood glucose during insulin tolerance test (Figure 5M), Average” value ([4]; time 60) of the same compound?
**A.** The value was 69.8.

**Q.** What about the “Blood glucose during insulin tolerance test (Figure 5M), Average” value ([4]; time 90) of the same compound?
**A.** The value was 59.667.

**Q.** What about the “Blood glucose during insulin tolerance test (Figure 5M), Average” value ([4]; time 120) of the same compound?
**A.** The value was 71.467.

**Q.** What about the “Blood glucose during insulin tolerance test (Figure 5M), Average” value ([4]; time 180) of the same compound?
**A.** Its value is 90.933.
